Source: article PMC2574850 (Cellular signalling, 2008)

Target: T1, PH ([325-451]ASAP1) (Mus musculus, UniProt Q9QWY8)
T1 sequence (Q9QWY8 325-451): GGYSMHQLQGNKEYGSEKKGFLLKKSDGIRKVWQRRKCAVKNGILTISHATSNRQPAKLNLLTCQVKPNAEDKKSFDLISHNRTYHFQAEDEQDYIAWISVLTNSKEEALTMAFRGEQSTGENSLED
Assay: isothermal titration calorimetry
Type: binding

- Kd: 75 ± 15 µM
SMILES: O=P(O)(O)O[C@@H]1[C@H](O)[C@H](O)[C@@H](OP(=O)(O)O)[C@H](OP(=O)(O)O)[C@H]1O [IP3]
